Read-outs that look alike come from different tables or passages of the source.
Assays:
Assay type in all cases: cell-based
[1] = molecular target: T1, ERα (Homo sapiens, UniProt P03372); assay: HEK293/GAL4/ERα antagonist assay (luciferase reporter); conditions: 1 nM estradiol, read-out: IC50 (nM), antagonistic effect
T1 sequence (P03372 311-547 limits assumed): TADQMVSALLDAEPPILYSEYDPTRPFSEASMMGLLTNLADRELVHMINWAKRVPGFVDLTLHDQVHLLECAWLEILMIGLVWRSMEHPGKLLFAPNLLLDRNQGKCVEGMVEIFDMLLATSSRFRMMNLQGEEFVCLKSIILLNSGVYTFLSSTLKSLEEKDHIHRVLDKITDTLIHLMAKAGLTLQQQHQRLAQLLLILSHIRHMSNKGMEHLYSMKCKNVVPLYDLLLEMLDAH
Experimental: (2) HEK293/GAL4/ERα Antagonist Assay
DMEM (without phenol red) containing 10% charcoal-stripped serum (i.e., 450 mL DMEM and 50 mL charcoal-stripped serum in 500 mL medium)
The antagonistic effect of the compound of formula (I) on ERα, was analyzed using triplicate wells with compound concentration ranging from 200 nM to 0.00256 nM.
• 1) The HEK293/GAL4/ERα cell suspension was collected and centrifuged at 1000 rpm for 5 minutes. The supernatant was discarded, and the cells were resuspended in pre-warmed experimental medium. After counting, the cell suspension was diluted with experimental medium. 40000 cells per well were seeded into a 96-well cell culture plate, with 80 μL of cell suspension per well. […] Subsequently, 10 μL of assay medium containing 10 nM estradiol was added to each well. For blank controls, 10 μL of assay medium was added. A final estradiol concentration of 1 nM was ensured. […] The plate was incubated at 25° C. for 2 minutes. After incubation, the luminescence signal was then detected using an EnVision plate reader. Data Analysis:
GraphPad Prism software was used to plot the data and calculate the IC50 values for the compound.

[2] = tested on: MDA-MB-134VI cells; assay: MDA-MB-134VI cell proliferation inhibition assay (CTG); conditions: Homo sapiens, 240 h, 10 days
Experimental: (§1) (5) HCC1428 and MDA-MB-134VI Cell Proliferation Inhibition Assay
(§2) The initial concentration of the compound of formula (I) was set at 200 nM, followed by 4-fold serial dilutions to achieve ten concentration gradients.
• 1) MDA-MB-134VI cells were cultured in DMEM complete growth medium containing 20% FBS and 1% PenStrep. • 2) When the cells in a T75 culture flask reached 80-90% cell fusion, they were digested with trypsin and collected. The cell passages used were the eighth generation for the first independent experiment and the sixth generation for the second independent experiment. • 3) The cells were centrifuged at 1000 rpm, resuspended in complete medium, and counted. The cell densities were 3.60×10^6 cells/mL for the first experiment and 1.93×10^6 cells/mL for the second experiment, with viability both exceeding 95%. • 4) Cell suspensions were prepared in complete medium at a density of 4.00×10^4 cells/mL for both experiments. […] 100 μL of CellTiter-Glo® reagent was added to each well. The plates were incubated at room temperature in the dark for 30 minutes. • 8) Luminescence values were read using a BMG plate reader.
(§3) The IC50 (half-maximal inhibitory concentration) of the compound was obtained using the following nonlinear fitting formula: […]

[3] = tested on: HCC1428 cells; assay: HCC1428 cell proliferation inhibition assay (CTG); conditions: Homo sapiens, HCC1428, 168 h, 7 days
Experimental: as §1, §2
• 1) HCC1428 cells were cultured in RPMI 1640 complete growth medium containing 10% FBS and 1% PenStrep. • 2) When the cells in a T75 culture flask reached 80-90% cell fusion, they were digested with trypsin and collected. The cell passages used were the seventh generation for the first independent experiment and the thirteenth generation for the second independent experiment. • 3) The cells were centrifuged at 1000 rpm, resuspended in complete medium, and counted. The cell densities were 1.30×10^6 cells/mL for the first experiment and 9.50×10^5 cells/mL for the second experiment, with viability both exceeding 95%. • 4) Cell suspensions were prepared in complete medium at a density of 1.25×10^4 cells/mL for both experiments. […] 100 μL of CellTiter-Glo® reagent was added to each well. The plate was incubated at room temperature in the dark for 30 minutes. • 8) Luminescence values were read using a BMG plate reader.
as §3

Structure (SMILES): FCCCN1CC[C@H](Nc2cnc(C3=C(CC(F)(F)F)CCCc4c3ccc3[nH]nc(F)c43)cn2)C1 [Compound of formula (I)]
- IC50 ([1]; Mean ± SD): 0.0857 ± 0.0103 nM
- IC50 ([1]; N = 1): 0.096 nM
- IC50 ([1]; N = 2): 0.075 nM
- IC50 ([2]; First experiment): 0.12 nM
- IC50 ([2]; Mean ± SD): 0.31 ± 0.26 nM
- IC50 ([2]; Second experiment): 0.49 nM
- IC50 ([3]; First experiment): 0.49 nM
- IC50 ([3]; Mean ± SD): 1.55 ± 0.99 nM
- IC50 ([3]; Second experiment): 1.34 nM
